Measured values: article PMC12652692, “Synthesis and In Vitro Anticancer Evaluation of Novel Phosphonium Derivatives of Chrysin” (International Journal of Molecular Sciences, 2025)

Legend:
Test in all cases: NCI60 one-dose screen
UACC-62 = format: cell-based, human; details: UACC-62, 10 μM
Method: (§1) The screening results are presented in the Supplementary Materials (Table S1), where the cytotoxicity was determined for the 10 µM concentration. […] The negative numbers indicate significant decreases in the cell number. […] Compared to the reference chrysin (2), all phosphonium hybrids (3a–h) had significant antiproliferative activities. […] At the same time, it should be noted that more than 60% average reduction was also obtained in the case of the other examined conjugates (3a–h).
(§2) A detailed description of the NCI screening procedures, including the one-dose and five-dose tests, can be found in the Supplementary Materials, on the website of NCI [39], and in our previous work.
(§3) A detailed description of the NCI screening procedures can also be found on the website of NCI [39], and in our […]
(§4) All candidates were examined at first at a single high dose (10 μM) in the full NCI60 cell panel. The value reported for the one-dose test is growth relative to the no-drug control and relative to the time zero number of cells. This made possible the disclosure of both growth inhibition (numbers between 0 and 100) and lethality (numbers less than 0). For example, a value of 100 means no growth inhibition. A value of 20 would mean 80% growth inhibition. A value of 0 means no net growth over the course of the analysis. A value of −20 would mean 20% lethality. A value of −100 means all cells are dead. […]
(§5) concentration levels. The human tumor cell lines of the cancer screening panel were grown in RPMI 1640 medium containing 5% fetal bovine serum and 2 mM l-glutamine. Characteristically, cells were injected in 96-well microtiter plates in 0.1 mL at plating densities ranging from 5000 to 40,000 cells/well, depending on the doubling time of individual cell lines. After cell inoculation, the microtiter plates were incubated at 37 °C, 5% carbon dioxide, 95% air, and 100% relative humidity for 24 hours before the addition of tested compounds. After 24 hours, 2 plates of each cell line were fixed in situ with Cl3COOH (TCA), to represent a measurement of the cell population for each cell line at the time of drug addition (tz). Tested compounds were solubilized in DMSO at 400-fold the desired final maximum test concentration and stored frozen before application. In the course of the drug addition, an aliquot of frozen concentrate was thawed and diluted to twice the desired final maximum test concentration with a complete medium containing 50 μg mL−1 gentamicin. Additional four, 10-fold or ½ log serial dilutions were produced to furnish a total of five drug concentrations plus control. Aliquots of 0.1 mL of these different drug dilutions were added to the appropriate microtiter wells already containing 0.1 mL of medium, resulting in the required final drug concentrations.
(§6) Following drug addition, the plates were incubated at 37 °C, 5% carbon dioxide, 95% air, and 100% relative humidity for an additional 48 hours. For adherent cells, the test was finished by the addition of cold Cl3COOH. Cells were fixed in situ by the addition of 50 μL of cold 50% (w/v) Cl3COOH, and incubated at 4 °C for 1 hour. The supernatant was discarded, and the plates were washed with H2O (5×) and dried in air. Sulforhodamine B (SRB) solution (0.1 mL) at 0.4% (w/v) in 1% CH3COOH was added to each well, and plates were incubated at RT for 10 min. After staining, the unbound dye was removed by washing five times with 1% CH3COOH, and the plates were dried in the air. The bound stain is afterward solubilized with a 10 mM trizma base, and the absorbance is read on an automated plate reader at λ = 515 nm. Utilizing the seven absorbance measurements [time zero (tz), control growth (c), and test growth in the presence of the drug at the five concentration levels (ti)], the percentage growth was determined at each of the drug concentration levels. Growth inhibition (%) was calculated as:
(§7) [(ti − tz)/(c − tz)] × 100, for concentrations where ti ≥ tz (1) […]

HOP-92 = format: cell-based, human; details: HOP-92, 10 μM
Method: as §1, §2, §3, §4, §5, §6, §7

T-47D = format: cell-based, human; details: 10 μM
Method: as §1, §2, §3, §4, §5, §6, §7

SR = format: cell-based, human; details: 10 μM
Method: as §1, §2, §3, §4, §5, §6, §7

PC-3 = format: cell-based, human; details: PC-3, 10 μM
Method: as §1, §2, §3, §4, §5, §6, §7

HT29 = format: cell-based; details: Homo sapiens, HT-29; HT29, 10 μM; read-out: Growth percent
Method: as §1, §2, §3, §4, §5, §6, §7

SK-MEL-28 = format: cell-based; details: Homo sapiens; SK-MEL-28, 10 μM; read-out: Growth percent
Method: as §1, §2, §3, §4, §5, §6, §7

A498 = format: cell-based; details: Homo sapiens; A498, 10 μM; read-out: Growth percent
Method: as §1, §2, §3, §4, §5, §6, §7

NCI-H23 = format: cell-based; details: Homo sapiens; NCI-H23, 10 μM; read-out: Growth percent
Method: as §1, §2, §3, §4, §5, §6, §7

NCI-H322M = format: cell-based; details: Homo sapiens, read-out: Growth percent
Method: as §1, §2, §3, §4, §5, §6, §7

SW-620 = format: cell-based; details: Homo sapiens; SW-620, 10 μM; read-out: Growth percent
Method: as §1, §2, §3, §4, §5, §6, §7

OVCAR-4 = format: cell-based; details: Homo sapiens; OVCAR-4, 10 μM; read-out: Growth percent
Method: as §1, §2, §3, §4, §5, §6, §7

SF-268 = format: cell-based; details: Homo sapiens; SF-268, 10 μM; read-out: Growth percent
Method: as §1, §2, §3, §4, §5, §6, §7

HS 578T = format: cell-based; details: Homo sapiens, read-out: Growth percent
Method: as §1, §2, §3, §4, §5, §6, §7

UACC-257 = format: cell-based; details: Homo sapiens; UACC-257, 10 μM; read-out: Growth percent
Method: as §1, §2, §3, §4, §5, §6, §7

SK-MEL-2 = format: cell-based; details: Homo sapiens; SK-MEL-2, 10 μM; read-out: Growth percent
Method: as §1, §2, §3, §4, §5, §6, §7

A549/ATCC = format: cell-based; details: Homo sapiens, read-out: Growth percent
Method: as §1, §2, §3, §4, §5, §6, §7

TK-10 = format: cell-based; details: Homo sapiens; TK-10, 10 μM; read-out: Growth percent
Method: as §1, §2, §3, §4, §5, §6, §7

BT-549 = format: cell-based; details: Homo sapiens; BT-549, 10 μM; read-out: Growth percent
Method: as §1, §2, §3, §4, §5, §6, §7

RXF 393 = format: cell-based; details: Homo sapiens; RXF 393, 10 μM; read-out: Growth percent
Method: as §1, §2, §3, §4, §5, §6, §7

SK-OV-3 = format: cell-based; details: Homo sapiens; SK-OV-3, 10 μM; read-out: Growth percent
Method: as §1, §2, §3, §4, §5, §6, §7

NCI/ADR-RES = format: cell-based; details: Homo sapiens, read-out: Growth percent
Method: as §1, §2, §3, §4, §5, §6, §7

O=c1cc(-c2ccccc2)oc2cc(OCCCC[P+](c3ccccc3)(c3ccccc3)c3ccccn3)cc(O)c12 [3h]
Growth percent (UACC-62): −73.54% | Growth percent (HOP-92): −69.74% | Growth percent (T-47D): −49.47% | Growth percent (SR): 0.35% | Growth percent (PC-3): −35.64% | activity at 10 µM (HT29): -60.6% | activity at 10 µM (SK-MEL-28): -94.7% | activity at 10 µM (A498): -94% | activity at 10 µM (NCI-H23): -89.3% | activity at 10 µM (NCI-H322M): -94.5% | activity at 10 µM (SW-620): -88.3% | activity at 10 µM (OVCAR-4): -51.2% | activity at 10 µM (SF-268): -67.6% | activity at 10 µM (HS 578T): -35.8% | activity at 10 µM (UACC-257): -89.8% | activity at 10 µM (SK-MEL-2): -95.4% | activity at 10 µM (A549/ATCC): -43.5% | activity at 10 µM (TK-10): -93.3% | activity at 10 µM (BT-549): -69.7% | activity at 10 µM (RXF 393): -80.5% | activity at 10 µM (SK-OV-3): -76.5% | activity at 10 µM (NCI/ADR-RES): -41.3%

O=c1cc(-c2ccccc2)oc2cc(O)cc(O)c12 [compound 2, 5,7-dihydroxyflavone, reference compound]
Growth percent (UACC-62): 82.24% | Growth percent (HOP-92): 77.93% | Growth percent (T-47D): 101.44% | Growth percent (SR): 77.87% | Growth percent (PC-3): 93.17% | activity at 10 µM (HT29): 103% | activity at 10 µM (SK-MEL-28): 102% | activity at 10 µM (A498): 86.6% | activity at 10 µM (NCI-H23): 92.6% | activity at 10 µM (NCI-H322M): 98.3% | activity at 10 µM (SW-620): 102% | activity at 10 µM (OVCAR-4): 112% | activity at 10 µM (SF-268): 102% | activity at 10 µM (HS 578T): 92.5% | activity at 10 µM (UACC-257): 119% | activity at 10 µM (SK-MEL-2): 110% | activity at 10 µM (A549/ATCC): 98.5% | activity at 10 µM (TK-10): 107% | activity at 10 µM (BT-549): 91% | activity at 10 µM (RXF 393): 91.2% | activity at 10 µM (SK-OV-3): 128% | activity at 10 µM (NCI/ADR-RES): 92.8%
